Measurements taken from article PMC8910920 (International Journal of Molecular Sciences, 2022).

Experiments:
[1] = test system: rats; assay: Behaviour observed after i.p. injection in the CCI study; assay type: in vivo, rat; settings: i.p. 30 mg/kg
Description: This behavior lasted 3-5 min and could possibly be related to the TRPV1 agonist activity of compound RGM8-51.
Rats were allocated into 2 groups to receive RGM8-51 and vehicle (DMSO 2% i.pl., or 150 µL/kg i.p.) by either the i.pl. (10 µg in 20 µL; n = 5 animals) or i.p. (10 or 30 mg/kg in 150 µL/kg; n = 8 animals) route. Responses to cold/heat/mechanical stimulation were assessed 30 min before and 30 min after RGM8-51 or vehicle injection. Behavioral testing prior to drug administration served to ascertain baseline conditions and the stability of cold, heat and mechanical hypersensitivity after surgery. RGM-8-51 stock was prepared in DMSO (Sigma-Aldrich) and diluted in saline for injections. Data are given as the mean ± standard error of the mean (SEM) of the corresponding number of behavioral measurements/animals used. Statistical analysis was performed by using the paired t-test (GraphPad 8; San Diego, CA, USA).

[2] = target: T1, rTRPM8 (Rattus norvegicus, UniProt Q8R455); assay: Whole-cell patch-clamp, HEK293-rTRPM8 cells; assay type: cell-based
T1 construct: expressed in transfected cells
T1 sequence (Q8R455 whole entry): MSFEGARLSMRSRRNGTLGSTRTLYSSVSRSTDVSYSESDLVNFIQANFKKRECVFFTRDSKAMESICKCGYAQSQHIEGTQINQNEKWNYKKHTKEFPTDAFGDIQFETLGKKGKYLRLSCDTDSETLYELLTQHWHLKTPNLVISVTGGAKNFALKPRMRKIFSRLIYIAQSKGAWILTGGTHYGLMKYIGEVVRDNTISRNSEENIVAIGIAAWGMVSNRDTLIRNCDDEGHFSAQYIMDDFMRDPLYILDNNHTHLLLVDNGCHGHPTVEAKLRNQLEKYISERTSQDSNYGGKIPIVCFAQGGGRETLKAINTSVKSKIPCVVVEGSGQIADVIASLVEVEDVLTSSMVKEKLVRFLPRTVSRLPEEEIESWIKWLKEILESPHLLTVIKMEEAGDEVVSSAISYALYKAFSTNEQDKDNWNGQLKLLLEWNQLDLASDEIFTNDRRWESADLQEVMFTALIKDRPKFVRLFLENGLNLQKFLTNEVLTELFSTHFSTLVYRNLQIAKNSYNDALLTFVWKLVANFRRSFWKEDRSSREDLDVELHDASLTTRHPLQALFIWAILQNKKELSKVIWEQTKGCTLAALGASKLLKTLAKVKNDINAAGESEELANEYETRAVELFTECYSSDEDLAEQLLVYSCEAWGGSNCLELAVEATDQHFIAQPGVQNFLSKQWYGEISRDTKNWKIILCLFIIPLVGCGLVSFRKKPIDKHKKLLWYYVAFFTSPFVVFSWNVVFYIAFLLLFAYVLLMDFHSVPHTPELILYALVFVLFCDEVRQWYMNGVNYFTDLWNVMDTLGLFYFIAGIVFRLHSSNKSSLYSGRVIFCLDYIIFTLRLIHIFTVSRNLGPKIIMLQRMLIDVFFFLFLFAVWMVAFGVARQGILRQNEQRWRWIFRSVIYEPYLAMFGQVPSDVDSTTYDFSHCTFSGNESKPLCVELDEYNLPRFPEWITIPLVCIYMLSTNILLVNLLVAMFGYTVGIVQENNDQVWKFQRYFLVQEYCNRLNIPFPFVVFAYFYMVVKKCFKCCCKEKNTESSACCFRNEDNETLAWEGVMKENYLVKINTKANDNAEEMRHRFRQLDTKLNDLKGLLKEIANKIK
Description: To confirm the antagonistic activity, electrophysiology (patch-clamp) studies were performed on HEK293 cells expressing the rTRPM8 channel. […] Then, using a holding voltage of −60 mV, different concentrations of RGM8-51 were used to establish the concentration/response curve for rTRPM8 current blockade.
Whole-cell patch-clamp recordings from HEK293-rTRPM8 cells were carried out 2 days after seeding on 12 mm Ø glass coverslips treated with poly-L-lysine solution (Sigma Aldrich, Spain); the intracellular pipette solution contained (in mM) 150 NaCl, 5 EGTA, 3 MgCl2 and 10 HEPES, adjusted to pH 7.2 with NaOH, and the extracellular solution contained (in mM) 150 NaCl, 6 CsCl, 1.5 CaCl2, 1 MgCl2, 10 D-glucose and 10 HEPES, adjusted to pH 7.4 with NaOH. The TRPM8 activity was measured by the application of two pulses of 100 μM menthol in a time interval of 2 min and a 30 s perfusion of the different compound concentrations before the second menthol pulse.
Data were sampled at 10 kHz (EPC10 amplifier with PatchMaster 2.53 software, HEKA Electronics, Lambrecht, Germany) and low-pass filtered at 3 kHz for analysis (PatchMaster 2.53 and GraphPad Prism 6.0, Graphpad Software, San Diego, CA, USA). The series resistance was <10 MΩ and to minimize voltage errors was compensated by 60–80%. […] Cell capacitance was measured and used to estimate the current density (J, pA/pF).
Data analysis: For the whole-cell patch-clamp experiments, results are expressed as the percentage of remaining activation of the TRPM8 channel. This is calculated by normalizing the ratio (p2/p1) of testing conditions to the ratio (p2/p1) of the control condition. […] All data are expressed as the mean ± standard error of the mean (SEM) (n = 5–8). In the current-clamp experiments, the change in membrane potential is expressed as the difference between the resting membrane potential and the membrane potential after the addition of a stimuli. Data were analyzed as previously described (GraphPad 6.0, one-way ANOVA followed by Bonferroni multiple comparisons test, and ROUT method, Q = 10%).

[3] = test system: CACO-2 cell monolayers; assay: Caco-2 permeability; assay type: in vitro ADME
Description: These studies were subcontracted to Eurofins-CEREP or Eurofins-PANLABS. Briefly, agonists and antagonist assays were performed in cell cultures overexpressing the corresponding channel (CHO: TRPV1 and TRPA1; HEK293: TRPV3 and ASIC3). In vitro pharmacology, cellular channel functional assays: the compound was prepared in assay buffer to the final concentration, 10 μM. The compound wells, reference agonist and background vehicle controls were prepared in DMSO at 0.3%. The reference agonist for each Ion Channel assayed was prepared in a similar manner to serve as the assay control. The reference agonist for each Ion Channel was included at Emax (the concentration where the reference agonist elicited a maximal response). The agonist assay was conducted on fluorimeter instruments where the test compound, vehicle controls, and reference agonist were added to the assay plate after a fluorescence baseline was established. The agonist assay was used to assess each compound’s ability to activate each Ion Channel assayed. For the antagonist assay, the compound was pre-incubated for five minutes at room temperature, and then challenged with the EC80 concentration of the reference agonist after establishment of a fluorescence baseline. Vehicle controls and EC80 concentration of reference agonist were added to appropriate wells. The antagonist assay was used to assess each compound’s ability to inhibit activation by the corresponding Ion Channel agonist. ASIC3 ionflux antagonist assay: all recordings were obtained from a holding potential of -60 mV. The compound addition sequence was as follows: one addition of pH5.5 buffer was added to establish the baseline response, the test concentration of compound was applied for 30 s, followed by the addition of pH5.5 of compound for 2 s. Binding assays were performed in CHO cell cultures overexpressing human CGRPR, CB2 and M2 receptors. RGM8-51 (10 μM) was tested, and reference compounds used as control agonists and antagonists are detailed in Table 2, footnote. Binding assay results are expressed as a percent of control specific binding. […] Aqueous solubility (μM) was determined by comparing the peak area of the principal peak in a calibration standard (200 μM) containing organic solvent (methanol/water, 60/40, v/v) with the peak area of the corresponding peak in a buffer sample. Partition coefficient: the total amount of compound was determined as the peak area of the principal peak in a calibration standard (100 μM) containing organic solvent (methanol/water, 60/40, v/v). The amount of compound in buffer was determined as the combined, volume-corrected, and weighted areas of the corresponding peaks in the aqueous phases of three organic-aqueous samples of different composition. An automated weighting system was used to ensure the preferred use of raw data from those samples with well quantifiable peak signals. The amount of compound in organic phase was calculated by subtraction. Subsequently, Log D was calculated as the Log10 of the amount of compound in the organic phase divided by the amount of compound in the aqueous phase. […] Permeability was measured in CACO-2 monolayers. Percentage of compounds in the receptors wells was measured using HPLC. […] In vitro metabolism was measured in human liver microsomes. […] The apparent intrinsic clearance (CLint, in μL/min/mg) was calculated from the half-life time.

C[C@@H]1C(=O)N(C[C@H](Cc2ccccc2)N(Cc2ccccc2)Cc2ccccc2)[C@]1(Cc1ccccc1)C(=O)OC(C)(C)C [RGM8-51, 4(S)-Benzyl-3S-methyl-4-(tert-butoxy)carbonyl-1-[(2′S-dibenzylamino-3′-phenyl)prop-1′-yl]-2-oxoazetidine]
duration of writhing behavior [1]: 3 to 5 min | writhing behavior [1]: writhing behavior was observed in a small number of animals | menthol-evoked outward rectifying current ([2]; 10 μM compound, 100 µM menthol): clearly reduced | IC50 ([2]; HEK293-rTRPM8, 100 μM menthol, holding voltage −60 mV): 970 ± 1560 nM | permeation of CACO-2 cell monolayers [3]: not able to permeate | Permeability B-A (%) ([3]; CACO-2 cell monolayer): 0% | Permeability A-B (%) ([3]; CACO-2 cell monolayer, percentage of compound in the acceptor cell): 0%
